Test results as given in the supplement of paper PMC10307832.

How the values were obtained:
Experiment in all cases: relative viability (nuclei count vs DMSO), 5 days (fraction); higher = more cells survive
[1] = compound: CC(C)C[C@@H](C(=O)N[C@H](C(=O)OC1CCCC1)c1ccccc1)[C@H](O)C(=O)NO [Tosedostat] + COc1cccc2cc(-c3nc([C@H]4CC[C@H](C(=O)O)CC4)n4ncnc(N)c34)[nH]c12 [OSI-027] (partner 0.5 µM)
How it was run: (§1)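 Dosing by pin tool came one day after lung cancer cell lines were seeded in 1536-well plates, using either one drug or a fixed anchor-drug dose plus five library-drug doses (not always all listed) in √10 steps. After 5 days, nuclei were counted on 4× images. Relative viability is treated-well nuclei count divided by vehicle-well nuclei count, and values are medians of duplicate plates.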

[2] = compound: CC(C)C[C@@H](C(=O)N[C@H](C(=O)OC1CCCC1)c1ccccc1)[C@H](O)C(=O)NO [Tosedostat] + C[C@]1(O)C[C@@H](c2nc(-c3ccc4ccc(-c5ccccc5)nc4c3)c3c(N)nccn32)C1 [Linsitinib] (partner 1 µM)
How it was run: as §1

[3] = compound: CC(C)C[C@@H](C(=O)N[C@H](C(=O)OC1CCCC1)c1ccccc1)[C@H](O)C(=O)NO [Tosedostat] + N=C(N)NC(=N)NCCc1ccccc1 [Phenformin] (partner 250 µM)
How it was run: as §1

[4] = compound: CC1=NN=C(O1)C2=NN=C(C=C2)N3CCC(CC3)OC4=C(C=CC(=C4)F)Cl + CCNC(=O)c1noc(-c2cc(C(C)C)c(O)cc2O)c1-c1ccc(CN2CCOCC2)cc1 [Luminespib] (partner 0.01 µM)
How it was run: as §1

Row | Cell Line | relative viability ([1]; first compound 0.02 µM) | relative viability ([1]; first compound 0.06325 µM) | relative viability ([1]; first compound 0.2 µM) | relative viability ([1]; first compound 0.6325 µM) | relative viability ([1]; first compound 2 µM) | relative viability ([2]; first compound 0.02 µM) | relative viability ([2]; first compound 0.06325 µM) | relative viability ([2]; first compound 0.2 µM) | relative viability ([2]; first compound 0.6325 µM) | relative viability ([2]; first compound 2 µM) | relative viability ([3]; first compound 0.02 µM) | relative viability ([3]; first compound 0.06325 µM) | relative viability ([3]; first compound 0.2 µM) | relative viability ([3]; first compound 0.6325 µM) | relative viability ([3]; first compound 2 µM) | relative viability ([4]; first compound 0.253 µM) | relative viability ([4]; first compound 0.8 µM) | relative viability ([4]; first compound 2.53 µM) | relative viability ([4]; first compound 8 µM)
1 | COR-L23 | 0.965 | 0.746 | 0.69 | 0.65 | 0.64 | 1.1 | 0.805 | 0.827 | 0.869 | 0.877 | 0.486 | 0.386 | 0.415 | 0.383 | 0.401 | 0.587 | 0.647 | 0.458 | 0.474
2 | ABC-1 | 0.588 | 0.546 | 0.423 | 0.391 | 0.406 | 0.95 | 0.868 | 0.854 | 0.773 | 0.626 | 0.201 | 0.201 | 0.247 | 0.23 | 0.206 | 0.35 | 0.362 | 0.207 | 0.262
3 | SW 900 | 0.619 | 0.505 | 0.544 | 0.476 | 0.322 | – | – | – | – | – | 0.496 | 0.606 | 0.478 | 0.367 | 0.417 | – | – | 0.175 | 0.175
4 | SW 1573 | 0.653 | 0.517 | 0.558 | 0.479 | 0.482 | 0.828 | 0.973 | 0.826 | 0.841 | 0.551 | 0.417 | 0.364 | 0.302 | 0.336 | 0.342 | 0.184 | 0.204 | 0.264 | 0.2
5 | NCI-H1648 | 0.28 | 0.268 | 0.262 | 0.242 | 0.267 | – | – | – | – | – | – | – | – | – | – | – | – | – | –
6 | A549 | – | – | – | – | – | 0.663 | 0.621 | 0.562 | 0.532 | 0.608 | 0.154 | 0.217 | 0.233 | 0.101 | 0.116 | – | – | – | –
7 | A-427 | 0.437 | 0.548 | 0.534 | 0.484 | 0.406 | 1.14 | 1.12 | 1.03 | 1.07 | 1.09 | 0.322 | 0.393 | 0.376 | 0.301 | 0.323 | 0.882 | – | 0.708 | 0.732
8 | NCI-H2009 | 0.696 | 0.605 | 0.498 | 0.4 | 0.367 | 1.2 | 1.12 | 1.17 | 0.881 | 1.02 | 0.562 | 0.477 | 0.477 | 0.468 | 0.419 | 0.596 | 0.565 | 0.539 | 0.523
9 | LCLC-97TM1 | 0.603 | 0.451 | 0.442 | 0.418 | 0.497 | 0.181 | – | – | 0.205 | 0.167 | 0.402 | 0.433 | 0.445 | 0.403 | 0.439 | 0.394 | 0.364 | 0.336 | 0.346
10 | NCI-H1792 | 0.71 | 0.68 | 0.752 | 0.729 | 1.08 | 0.553 | 0.578 | 0.496 | 0.548 | 0.636 | 0.243 | 0.472 | 0.445 | 0.404 | 0.31 | 0.34 | 0.38 | 0.419 | 0.431
11 | LCLC-103H | 0.553 | 0.417 | 0.491 | 0.502 | 0.472 | 1.29 | 1.08 | 1.06 | 1.18 | 1.36 | 0.361 | 0.308 | 0.323 | 0.323 | 0.32 | 0.678 | 0.74 | 0.537 | 0.582
12 | LOU-NH91 | 0.735 | 0.822 | 0.703 | 0.676 | 0.616 | 0.961 | 0.932 | 0.991 | 0.973 | 0.938 | 0.823 | 0.742 | 0.691 | 0.677 | 0.481 | 0.317 | 0.318 | 0.307 | 0.315
13 | BEN | 0.298 | 0.292 | 0.286 | 0.31 | 0.326 | 0.986 | 0.921 | 0.989 | 1.14 | 1.06 | 0.263 | 0.251 | 0.269 | 0.253 | 0.273 | 0.47 | 0.459 | 0.312 | 0.18
14 | ChaGo-K-1 | 0.54 | 0.525 | 0.577 | 0.617 | 0.498 | – | – | – | – | – | 0.435 | 0.522 | 0.487 | 0.412 | 0.359 | 0.426 | 0.532 | 0.56 | 0.541
15 | Calu-6 | – | – | – | – | – | 0.979 | 0.942 | 0.907 | 0.848 | 0.647 | – | – | – | – | – | – | – | – | –
16 | NCI-H1650 | 0.606 | 0.633 | 0.662 | 0.639 | 0.706 | – | – | – | – | – | 0.484 | 0.501 | 0.399 | 0.399 | 0.281 | – | 0.194 | 0.217 | 0.205
17 | HCC-366 | 1.15 | 0.806 | 1.01 | 0.643 | 0.594 | 0.59 | 0.77 | 0.721 | 0.457 | 0.602 | 0.573 | 0.623 | 0.638 | 0.532 | 0.6 | – | – | – | –
18 | NCI-H2342 | 0.627 | 0.708 | 0.632 | 0.576 | 0.599 | – | – | – | – | – | 0.513 | 0.733 | 0.558 | 0.494 | 0.442 | 0.501 | 0.528 | 0.484 | 0.476
19 | EBC-1 | – | – | – | – | – | 0.843 | 0.808 | 0.977 | 0.581 | 0.585 | – | – | – | – | – | – | – | – | –
20 | NCI-H522 | 0.842 | 0.82 | 0.819 | 0.916 | 0.79 | – | – | – | – | – | 1.31 | 0.592 | 0.659 | 0.624 | 0.58 | 1.2 | 0.989 | 1.15 | 1.22
21 | IA-LM | – | – | – | – | – | 0.688 | 0.596 | 0.463 | 0.445 | 0.474 | – | – | – | – | – | – | – | – | –
22 | NCI-H2170 | 0.749 | 0.738 | 0.736 | 0.773 | 0.571 | – | – | – | – | – | 0.409 | 0.424 | 0.381 | 0.396 | 0.408 | 0.468 | 0.475 | 0.353 | 0.311
23 | NCI-H1299 | – | – | – | – | – | 1.13 | 0.878 | 0.984 | 0.878 | 0.839 | – | – | – | – | – | – | – | – | –
